Patent publication US8067408B2, “Dual pharmacophores—PDE4-muscarinic antagonistics” (priority 2008, dated 2011)

| SMILES | melting point [°C] |
| --- | --- |
| CCc1nc2c(cnn2CC)c(NC2CCOCC2)c1CNC(=O)c1cccc(C(=O)NCc2ccc(C)c(-c3cccc(CN4CCCN(C)CC4)c3)c2)c1 [Example 216, N-{[1,6-Diethyl-4-(tetrahydro-2H-pyran-4-ylamino)-1H-pyrazolo[3,4-b]pyridin-5-yl]methyl}-N′-({6-methyl-3′-[(4-methylhexahydro-1H-1,4-diazepin-1-yl)methyl]-3-biphenylyl}methyl)-1,3-benzenedicarboxamide] | 107 to 109 |
| CCc1nc2c(cnn2CC)c(NC2CCOCC2)c1CNC(=O)c1cccc(C(=O)NCc2ccc(Cl)c(-c3cccc(CN4CCCN(C)CC4)c3)c2)c1 [Example 218, N-({6-Chloro-3′-[(4-methylhexahydro-1H-1,4-diazepin-1-yl)methyl]-3-biphenylyl}methyl)-N′-{[1,6-diethyl-4-(tetrahydro-2H-pyran-4-ylamino)-1H-pyrazolo[3,4-b]pyridin-5-yl]methyl}-1,3-benzenedicarboxamide] | 105 to 107 |
| CCc1nc2c(cnn2CC)c(NC2CCOCC2)c1CNC(=O)c1cccc(C(=O)NCc2ccc(Cl)c(-c3cccc(CN4CCN(C)CC4)c3)c2)c1 [Example 219, N-({6-Chloro-3′-[(4-methyl-1-piperazinyl)methyl]-3-biphenylyl}methyl)-N′-{[1,6-diethyl-4-(tetrahydro-2H-pyran-4-ylamino)-1H-pyrazolo[3,4-b]pyridin-5-yl]methyl}-1,3-benzenedicarboxamide] | 112 to 114 |
| CCc1nc2c(cnn2CC)c(NC2CCOCC2)c1CNC(=O)c1cccc(C(=O)NCc2ccc(Cl)c(-c3cccc(CN4CCCNCC4)c3)c2)c1 [Example 221, N-{[6-Chloro-3′-(hexahydro-1H-1,4-diazepin-1-ylmethyl)-3-biphenylyl]methyl}-N′-{[1,6-diethyl-4-(tetrahydro-2H-pyran-4-ylamino)-1H-pyrazolo[3,4-b]pyridin-5-yl]methyl}-1,3-benzenedicarboxamide] | 116 to 119 |
| CCc1nc2c(cnn2CC)c(NC2CCOCC2)c1CNC(=O)c1cccc(C(=O)NCc2ccc(Cl)c(-c3cccc(CN4CCNCC4)c3)c2)c1 [Example 222, N-{[6-Chloro-3′-(1-piperazinylmethyl)-3-biphenylyl]methyl}-N′-{[1,6-diethyl-4-(tetrahydro-2H-pyran-4-ylamino)-1H-pyrazolo[3,4-b]pyridin-5-yl]methyl}-1,3-benzenedicarboxamide] | 127 to 130 |
| CCc1nc2c(cnn2CC)c(NC2CCOCC2)c1CNC(=O)c1cccc(C(=O)NCc2ccc(Cl)c(-c3cccc(CN4C[C@@H]5C[C@H]4CN5)c3)c2)c1 [Example 223, N-({6-Chloro-3′-[(1S,4S)-2,5-diazabicyclo [2.2.1]hept-2-ylmethyl]-3-biphenylyl}methyl)-N′-{[1,6-diethyl-4-(tetrahydro-2H-pyran-4-ylamino)-1H-pyrazolo[3,4-b]pyridin-5-yl]methyl}-1,3-benzenedicarboxamide] | 145 to 149 |

Second part, the compound after the results:

| melting point [°C] | SMILES |
| --- | --- |
| 127 to 129 | CCc1nc2c(cnn2CC)c(NC2CCOCC2)c1CNC(=O)c1cccc(C(=O)NCc2ccc(OC)c(-c3cccc(CN4C[C@@H](C)N[C@@H](C)C4)c3)c2)c1 [Example 210, N-{[1,6-Diethyl-4-(tetrahydro-2H-pyran-4-ylamino)-1H-pyrazolo[3,4-b]pyridin-5-yl]methyl}-N′-{[3′-{[(3R,5S)-3,5-dimethyl-1-piperazinyl]methyl}-6-(methyloxy)-3-biphenylyl]methyl}-1,3-benzenedicarboxamide] |
| 109 to 112 | CCc1nc2c(cnn2CC)c(NC2CCOCC2)c1CNC(=O)c1cccc(C(=O)NCc2ccc(C)c(-c3cccc(CN4C[C@@H](C)N[C@@H](C)C4)c3)c2)c1 [Example 211, N-{[1,6-Diethyl-4-(tetrahydro-2H-pyran-4-ylamino)-1H-pyrazolo[3,4-b]pyridin-5-yl]methyl}-N′-[(3′-{[(3R,5S)-3,5-dimethyl-1-piperazinyl]methyl}-6-methyl-3-biphenylyl)methyl]-1,3-benzenedicarboxamide] |
| 115 to 118 | CCc1nc2c(cnn2CC)c(NC2CCOCC2)c1CNC(=O)c1cccc(C(=O)NCc2ccc(C)c(-c3cccc(CN4CCN[C@@H](C)C4)c3)c2)c1 [Example 212, N-{[1,6-Diethyl-4-(tetrahydro-2H-pyran-4-ylamino)-1H-pyrazolo[3,4-b]pyridin-5-yl]methyl}-N′-[(6-methyl-3′-{[(3S)-3-methyl-1-piperazinyl]methyl}-3-biphenylyl)methyl]-1,3-benzenedicarboxamide] |
| 110 to 112 | CCc1nc2c(cnn2CC)c(NC2CCOCC2)c1CNC(=O)c1cccc(C(=O)NCc2ccc(OC)c(-c3cccc(CN4CCN[C@@H](C)C4)c3)c2)c1 [Example 213, N-{[1,6-Diethyl-4-(tetrahydro-2H-pyran-4-ylamino)-1H-pyrazolo[3,4-b]pyridin-5-yl]methyl}-N′-[(6-(methyloxy)-3′-{[(3S)-3-methyl-1-piperazinyl]methyl}-3-biphenylyl)methyl]-1,3-benzenedicarboxamide] |
| 117 to 120 | CCc1nc2c(cnn2CC)c(NC2CCOCC2)c1CNC(=O)c1cccc(C(=O)NCc2ccc(Cl)c(-c3cccc(CN4CCN[C@@H](C)C4)c3)c2)c1 [Example 214, N-[(6-Chloro-3′-{[(3S)-3-methyl-1-piperazinyl]methyl}-3-biphenylyl)methyl]-N′-{[1,6-diethyl-4-(tetrahydro-2H-pyran-4-ylamino)-1H-pyrazolo[3,4-b]pyridin-5-yl]methyl}-1,3-benzenedicarboxamide] |
| 116 to 118 | CCc1nc2c(cnn2CC)c(NC2CCOCC2)c1CNC(=O)c1cccc(C(=O)NCc2ccc(Cl)c(-c3cccc(CN4CCN[C@@H](C)C4)c3)c2)c1 [Example 215, N-[(6-Chloro-3′-{[(3S)-3-methyl-1-piperazinyl]methyl}-3-biphenylyl)methyl]-N′-{[1,6-diethyl-4-(tetrahydro-2H-pyran-4-ylamino)-1H-pyrazolo[3,4-b]pyridin-5-yl]methyl}-1,3-benzenedicarboxamide] |
| 116 to 119 | CCc1nc2c(cnn2CC)c(NC2CCOCC2)c1CNC(=O)c1cccc(C(=O)NCc2ccc(OC)c(-c3cccc(CN4CCCN(C)CC4)c3)c2)c1 [Example 217, N-{[1,6-Diethyl-4-(tetrahydro-2H-pyran-4-ylamino)-1H-pyrazolo[3,4-b]pyridin-5-yl]methyl}-N′-{[3′-[(4-methylhexahydro-1H-1,4-diazepin-1-yl)methyl]-6-(methyloxy)-3-biphenylyl]methyl}-1,3-benzenedicarboxamide] |
| 121 to 124 | CCc1nc2c(cnn2CC)c(NC2CCOCC2)c1CNC(=O)c1cccc(C(=O)NCc2ccc(Cl)c(-c3cccc(CN4C[C@@H](C)N[C@@H](C)C4)c3)c2)c1 [Example 220, N-[(6-Chloro-3′-{[(3R,5S)-3,5-dimethyl-1-piperazinyl]methyl}-3-biphenylyl)methyl]-N′-{[1,6-diethyl-4-(tetrahydro-2H-pyran-4-ylamino)-1H-pyrazolo[3,4-b]pyridin-5-yl]methyl}-1,3-benzenedicarboxamide] |
